# Measured values as given in US12606540B2, “Triazolone compound” (MEDSHINE DISCOVERY INC., priority 2020, dated 2026).
# Like-named read-outs stand apart in the source and are kept apart here.
# Columns and labels:
# [1] = system: dextran sulfate sodium (DSS) induced colitis model; assay: DSS induced colitis model in mice; type: in vivo, C57BL/6 mice
# Protocol: • 6.1 Purpose of the study: In order to verify the effect of the test sample on dextran sulfate sodium (DSS) induced colitis model in […] mice. • 6.2 Experimental design for inducing colitis: The mice in the vehicle and administration groups were administered on Day 0 for 1 h, and the mice freely drank water containing 3% DSS until Day 7, after Day 8, the mice were euthanized and their colon was taken for analysis. C57BL/6 mice, 8 weeks of age, 18-20 g, female. Administration was started on Day 0 to Day 7 for both the vehicle and administration groups. • 6.3 Drinking water containing DSS: The appropriate amount of DSS powder was dissolved in autoclaved drinking water and configured as a 3% DSS solution. • 6.4 Administration: Animals of group 1 were given the vehicle, animals of group 2 were given compound 5, and animals of group 3 were given normal drinking water and the vehicle, the vehicle was 5% DMSO/10% Solutol solution/0.2% Tween80/84.8% aqueous solution, with twice a day. 6.5 Measurement 6.5.1 Weight
# Recording frequency was once a day, Days 0 to 8.
# The recording frequency is once a day, Days 0 to 8, and is rated at 4 grades according to the following criteria: • Weight change (0, ≤1%; 1, 1-5%; 2, 6-10%; 3, 11-20%; 4, >20%). • Hematochezia (0, negative; 1, weakly positive for occult blood; 2, positive for occult blood; 3, significant hematochezia; 4, massive hematochezia) • Stool score (0, normal; 1, soft stool; 2, flaccid stool; 3, loose stool; 4, diarrhea)
# The daily disease index is obtained by adding the scores of the above three parts.
# On Day 8, all animals received an overdose of CO2 and were executed by cervical dislocation. The abdominal cavity was cut open and the colon of the mice was taken, the tissue around the colon was removed, and the longitudinal length from the ileocecum to the anus was measured and the whole was photographed. The colon was dissected, the intestinal contents were cleaned, weighed separately, and the stool consistency was recorded.
# The colonic tissue was divided into two longitudinally and one was fixed in 10% neutral paraformaldehyde in the form of “Swiss” rolls.
# The experimental data were expressed as mean±standard error (S.E.M.). Data were adopted by GraphPad Prism and analyzed by ANOVA statistical method. P<0.05 was considered as statistical difference.
# [2] = Pharmacokinetic evaluation in mice (IV and PO); type: in vivo, female Balb/c mice; settings: for MRT last: read-out: MRT0-last
# Protocol: Experiment process: 0.04 mg/mL of a clarified solution of the test compound in 5% DMSO/10% Solutol solution/85% water was injected into female Balb/c mice (overnight fasting, 7-9 weeks of age) via tail vein, with dosage of 0.2 mg/kg. 0.1 mg/mL of the test compound in 5% DMSO/10% Solutol solution/0.2% Tween80/84.8% water was administered by gavage to female Balb/c mice (overnight fasting, 7-9 weeks of age), with dosage of 1 mg/kg. About 30 μL of blood was collected from the jugular vein at 0.0833, 0.25, 0.5, 1.0, 2.0, 4.0, 8.0, 10 and 24 h and from the tail vein at 0.25, 0.5, 1.0, 2.0, 4.0, 8.0 and 24 h after administration for both groups of animals, and were placed in anticoagulation tubes with EDTA-K2, and the blood was separated by centrifugation to obtain plasma. Plasma concentrations were detected by LC-MS/MS, and relevant pharmacokinetic parameters were calculated using WinNonlin™ Version 6.3 (Pharsight, Mountain View, CA) pharmacokinetic software with a non-compartmental model linear logarithmic trapezoid method.
# [3] = system: MDR1 (P-glycoprotein); assay: Permeability evaluation on MDR1-MDCK II cell line; settings: dog, MDCK-MDR1, pH 7.4
# [4] = target: DHODH enzyme (Homo sapiens, UniProt Q02127); assay: DHODH enzyme inhibitory activity in vitro (resazurin fluorescence); type: biochemical; settings: 5 nM DHODH, 15 μM L-DHO, 80 μM Resazurin
# Chain of DHODH enzyme (Q02127 whole entry): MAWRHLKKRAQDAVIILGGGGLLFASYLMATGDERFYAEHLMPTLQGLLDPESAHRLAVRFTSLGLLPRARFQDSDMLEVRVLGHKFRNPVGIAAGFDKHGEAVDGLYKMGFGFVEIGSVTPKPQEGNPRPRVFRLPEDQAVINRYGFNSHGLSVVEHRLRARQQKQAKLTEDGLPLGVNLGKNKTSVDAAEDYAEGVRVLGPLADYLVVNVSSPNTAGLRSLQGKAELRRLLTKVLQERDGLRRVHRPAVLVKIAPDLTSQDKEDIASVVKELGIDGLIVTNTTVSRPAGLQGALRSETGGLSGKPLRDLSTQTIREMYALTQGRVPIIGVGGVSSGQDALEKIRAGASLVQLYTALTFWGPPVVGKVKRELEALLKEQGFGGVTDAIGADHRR
# From the text: The DHODH inhibitory activity of the compounds was detected by the following experimental method, and the experimental results are as shown in Table 1.
# DHODH uses flavin mononucleotide FMN to catalyze the oxidation of dihydrooratic acid DHO to produce oratic acid, while the re-oxidation of FMN requires the participation of coenzyme CoQ. In the experiment of detecting the DHODH enzyme activity, CoQ was replaced by Resazurin dye as the final electron acceptor in the enzyme activity reaction. Resazurin solution is blue, and the resorufin generated after reduction has red fluorescence, and the fluorescence signal can be detected under the 535 nm of excitation wavelength and the 590 nm of emission wavelength. The components of the reaction buffer used in the experiment were 100 mM Hepes pH 7.0, 150 mM NaCl, 0.3% CHAPS, 0.5 mg/mL BSA, 0.1 μM FMN and 1% DMSO. The final concentration of DHODH enzyme in the reaction system was 5 nM, and the final concentration of substrate L-DHO was 15 μM, the final concentration of indicator Resazurin was 80 μM. The components of the reaction stop buffer were 100 mM Hepes pH 7.0 and 5 mM Orotate. The specific method was as follows: 2-fold final concentration of the DHODH enzyme solution was mixed with the compound, incubated at room temperature for 20 min, 2-fold final concentration of the substrate mixture solution of L-DHO and resazurin was added and reacted, incubated at room temperature away from light for 45 min. Then the reaction was stopped by adding 2-fold final concentration of the reaction stop buffer to the reaction system, and incubated at room temperature for 10 min, the fluorescence signal of the reaction system was detected with EnVision under the condition of Ex/Em=535/590 nm.
# [5] = system: influenza virus A/Weiss/43 (H1N1); assay: Influenza virus cytopathic effect (CPE) experiment in MDCK cells; type: cell-based; settings: unidentified influenza virus, H1N1, 120 h, 5 days incubation, CCK8
# [6] = 5 mpk/BID, compared with the modeling group, p<0.0001
# [7] = female, Balb/c, mouse, plasma, IV 0.2 mg/kg
# [8] = female, Balb/c, mouse, plasma, PO 1 mg/kg
smiles,measurement,setting,value
CCn1c(CO)nn(-c2cc(O[C@@H](C)C(F)(F)F)c(/C(F)=C/c3ncccc3Cl)cc2F)c1=O [Compound 5],Level of inflammatory factor TNF-α in the colonic mucosa,"[1]; 5 mg/kg BID, Day 8, p<0.05 compared with the modeling group",effectively reduces
same,Colon length (colonic shortening) at the experimental endpoint,[1]; [6],significantly improves
same,Colonic density at the experimental endpoint,[1]; [6],significantly improves the inflammation-induced increase of colonic density
same,DAI (Disease Activity Index) score,"[1]; compared to the modeling group, administration for 6 days, Day 8 p<0.0001",significantly improved
same,Animal weight change,"[1]; compared with the modeling group, p<0.01 on Day 8, twice a day",significantly slow down the weight loss of mice
same,Tlast,[2]; IV 0.2 mg/kg,24.0 h
same,F,[2]; PO 1 mg/kg,95.8%
same,Tlast,[2]; PO 1 mg/kg,24.0 h
same,AUC(0-inf),[2]; [7],1.51 µM·h
same,AUC(0-t),[2]; [7],1.43 µM·h
same,clearance,[2]; [7],4.38 mL/min/kg
same,half-life,[2]; [7],5.83 h
same,MRT last,[2]; [7],6.24 h
same,Vd,"[2]; female, Balb/c, mouse, plasma, IV 0.2 mg/kg, read-out: VdSS",2.02 L/kg
same,AUC(0-inf),[2]; [8],7.21 µM·h
same,AUC(0-t),[2]; [8],6.87 µM·h
same,Tmax,[2]; [8],2 h
same,half-life,[2]; [8],5.36 h
same,MRT last,[2]; [8],6.99 h
same,C0,"[2]; female, Balb/c, mouse, IV 0.2 mg/kg, plasma",354 nM
same,Cmax,"[2]; female, Balb/c, mouse, PO 1 mg/kg, plasma",794 nM
same,"Papp A→B at 150 min, 2 μM",[3],13.3 ×10⁻⁶ cm/s
same,"Papp B→A at 150 min, 2 μM",[3],18.2 ×10⁻⁶ cm/s
same,"Papp at 150 min, 2 μM",[3],> 5.5 ×10⁻⁶ cm/s
same,"efflux ratio at 150 min, 2 μM",[3],1.37
same,IC50,[4],3.5 nM
same,EC50,[5],70 nM
